According to patent US9421173B2, “Nano delivery systems for siRNA” (YISSUM RESEARCH DEVELOPMENT COMPANY OF THE HEBREW …, priority 2011, dated 2016):

How the values were obtained:
Format in all cases: physicochemical
[1] = Encapsulation efficacy of siRNA in crosslinked HSA NSs (Trypsin digestion, RP-HPLC); details: 200 μg siRNA
Protocol: For encapsulation of siRNA inside crosslinked HSA NSs, siRNA was added to HSA solution prior the addition of desolvating phase. The rest of procedure was made exactly in the same manner detailed above, when instead of using DDW, RNAse free water (RNFW) was used. After crosslinking, the NSs were washed and the total ultrafiltrate was collected, lyophilized and reconstituted with 500 μl RNFW, from which, 160 ul were injected to HPLC. Since partial degradation of free siRNA in the ultrafiltrate was observed, the preferred way to determine siRNA content in the NSs is to directly determine siRNA content in the particle (after its digestion), and not based on the free siRNA (un-encapsulated) in the ultrafiltrate.
The total weight of HSA per 100 μl of suspension (after wash) was quantified gravimetrically. Then 1-2 mg of washed HSA NPs encapsulating siRNA was diluted to 1 ml with RNase free PBS buffer (adjusted to pH=7.5 using 0.5 M NaOH solution) and digested with 20 to 150 μg Trypsin for 60, 90 or 180 min, at dark and under mild shaking at 37° C., till a clear solution was formed. In case sample containing DOTAP, Heparin (90 μg) was added to the aqueous phase, 0 or 60 min after the addition of Trypsin. The free siRNA quantity was determined using RP-HPLC, in the presence of Trypsin or without it.
In order to determine the encapsulation efficacy of siRNA in the crosslinked HSA NSs, the washed NSs were digested with Trypsin till a clear solution was formed and the total siRNA content was detected using RP-HPLC and calculated based on AUC. According to the protocol we have developed in our lab (for detailing see section E), the reliability of such method in quantification the released siRNA, is highly efficient (FIGS. 5-6). A few trends can be concluded; In the presence of DOTAP, the best encapsulation (˜40%) accepted at the low basic pH (pH 8 and 7). At pH 9, removal of the DOTAP from NSs, have reduced encapsulation efficacies. This effect is more pronounced when the non cholesterol modified siRNA (GFP-siRNA) is used.

[2] = Melting point measurements for siRNAs (UV 260 nm); details: buffer 48 mM Tris, 96 mM NaCl, pH 7.1
Protocol: Melting point measurements for different siRNAs (21-mer) used were performed on a UV-visible spectrophotometer (Cary 300) at 260 nm, by elevating the sample temperature from 20° C. to 85° C. at rate of 1° C./min. All siRNAs were dissolved in buffer (48 mM Tris, 96 mM NaCl, pH 7.1) to obtain a concentration of 4-10 ng/μl.
The temperature at which the 50% of siRNA strands are denatured is called the melting temperature, or Tm. The Tm for various siRNAs (21 mers) used in our research, was measured and found to be: 78, 77 and 72° C. for GFP-siRNA, Chol-GFP-siRNA and EGFR-siRNA, respectively. With all examined siRNAs, beginning of separation was already observed at 60° C. (data not shown).

[3] = Integrity evaluation of free siRNA exposed to pH 7, 8, 9 with or without glutaraldehyde (HPLC, PAGE 8%); details: for integrity of free siRNA in the presence of the cross linker (glutaraldehyde): 3 hr, all the pH tested (7, 8, 9), 'heavy' specie runs slower at the gel
Protocol: FIGS. 16A-16B are gel retardation assays (PAGE 8%) for evaluation of free siRNA integrity after exposure to different conditions. Integrity evaluation was made for GFP-siRNA (FIG. 16A) and Chol-GFP-siRNA (FIG. 16B). Lane No. 1—ladder, Lane No. 2, 3—controls with 100 and 50 ng of untreated siRNA respectively. Lanes 4, 6 and 8, with siRNA exposed to pH 7, 8 and 9, respectively. Lanes 5, 7 and 9, with siRNA exposed to pH 7, 8 and 9 in the presence of glutaraldehyde (0.014% (v/v)), respectively.
(§1) For siRNA integrity (stability) evaluation 8% (19:1) native polyacrylamide gels (PAGE) was used. Electrophoresis was carried out at 200V for 50 min, in Tris-Borate-EDTE (TBE) as running buffer. For siRNA staining, 0.01% of EtBr was used. Gels were visualized under a UV transilluminator.
During the primal encapsulation process of siRNA in the HSA NSs it has been exposed to materials with distractive potential such as basic pH conditions and the presence of cross linker (glutaraldehyde) who can interact with the primal amine present in the nucleic bases: Guanine, Adenine or Cytosine. Hens, the need in siRNA integrity evaluation arise. First, integrity evaluation of the free siRNA (GFP-siRNA and Chol-GFP-siRNA) was made. The siRNAs were exposed to the same conditions used for production of crosslinked HSA NSs (3 hr at aqueous solutions with pH of 7, 8 or 9 with or without the presence of glutaraldehyde), then a fraction from each sample was analyzed using HPLC (data not shown) and gel retardation assay (PAGE 8%) (FIG. 16).

[4] = Integrity evaluation of siRNA extracted from crosslinked HSA NSs and from NCs (HPLC, PAGE 8%); details: compared with untreated siRNA
Protocol: FIGS. 17A-17B are gel retardation assays (PAGE 8%) for evaluation of extracted siRNA. Integrity evaluation was made for GFP-siRNA (FIG. 17A) and Chol-GFP-siRNA (FIG. 17B). Lane No. 1—ladder, Lane No. 2—control with 100 ng of untreated siRNA. Lanes 3-8 with siRNA extracted from primal crosslinked HSA NSs (produced in different pH conditions), Lanes 9 and 10, with siRNA extracted from NCs loaded with the primal crosslinked HSA.
as §1
Later, siRNAs were extracted from the primal crosslinked HSA NSs (produced in different pH conditions), and their integrity was assessed using HPLC (data not shown) and gel retardation assay (PAGE 8%) (FIG. 17). Furthermore, the stability of siRNAs extracted from NCs loaded with the primal crosslinked HSA was also examined ([…]—lanes No. 9 & 10), since secondary encapsulation process performed under heat (Tin is 50° C.), using the nano spray drying technique. […] Based on the HPLC results, the exact amount of encapsulated siRNA was determined. […]

| Substance | % encapsulation ([1]; pH 7, with 0.03 mg DOTAP) [%] | Encapsulated is RNA ([1]; pH 7, with 0.03 mg DOTAP) [µg] | % encapsulation ([1]; pH 8, with 0.03 mg DOTAP) [%] | Encapsulated is RNA ([1]; pH 8, with 0.03 mg DOTAP) [µg] | % encapsulation ([1]; pH 9, with 0.03 mg DOTAP) [%] | Encapsulated is RNA ([1]; pH 9, with 0.03 mg DOTAP) [µg] | % encapsulation ([1]; pH 9, without DOTAP) [%] | Encapsulated is RNA ([1]; pH 9, without DOTAP) [µg] | melting temperature, or Tm (50% of siRNA strands denatured) [2] [°C] | integrity of free siRNA at basic pH ([3]; 3 hr in aqueous solutions of pH 7, 8 or 9, without glutaraldehyde) | integrity of free siRNA in the presence of the cross linker (glutaraldehyde) [3] | integrity of siRNA encapsulated in the primal HSA NSs or secondary NCs [4] |
| --- | --- | --- | --- | --- | --- | --- | --- | --- | --- | --- | --- | --- |
| Chol-GFP-siRNA: Cholesterol modified GFP-siRNA, 21 bp, MW 15,079 Da, SEQ ID NO: 7 and 8, provided by Roche (chain 1 AUAUCAUGGCCGACAAGCATT; chain 2 UGCUUGUCGGCCAUGAUAUTT; 5' cholesteryl, chemistry not fully specified) | 39 | 76 | 40 | 80 | 26 | 52 | 16 | 32 | 77 | improved resistant to basic pH (8 and 9) compared to GFP-siRNA | highly sensitive | stayed intact |
| EGFR-siRNA: Anti Epidermal Growth Factor Receptor siRNA, 21 bp, MW 13,400 Da, SEQ ID NO: 1 and 2, purchased from Ambion (chain 1 CCAUAAAUGCUACGAAUAUTT; chain 2 AUAUUCGUAGCAUUUAUGGAG; a few LNA modifications, positions not given here, lowercase DNA) | – | – | – | – | – | – | – | – | 72 | – | – | – |
| GFP-siRNA: Anti Green Fluorescent Protein siRNA, 21 bp, MW 14,352 Da, SEQ ID NO: 5 and 6, provided by Roche (chain 1 AUAUCAUGGCCGACAAGCATT; chain 2 UGCUUGUCGGCCAUGAUAUTT; chemistry not fully specified) | 43 | 86 | 42 | 84 | 24 | 48 | 9 | 18 | 78 | – | highly sensitive | stayed intact |
